Assay results reported in US20230331781A1, “PAR4 DERIVED PEPTIDES, ANALOGS AND USES THEREOF” (Yissum Research Development Company of the Hebrew …, priority 2019, published 2023).
Numbered stars: 1 amine (or outer) side, 2 acyl side, 3 side chain; on linkers, the order of the positions; unused ones are H or OH. Bridge positions count the residues as written; N and C are the ends. Square brackets hold non-standard residues; d marks the D form. Ends that are not written are not given here. GlyBU(C4) = Gly building unit (N-alpha-functionalized Gly) carrying a C4 alkyl chain (n = m = 4), bridged through a urea group; CO = O=C([*:1])[*:2]

Tested on: RKO/hPar4 cells
Assay: Xenograft tumor model, RKO/hPar4 clone inoculated subcutaneously in nude mice
Type: in vivo
Conditions: for tumor growth / tumor size: RKO/hPar4 in nude mice, s.c. at tumor site, 100 μM, 0.25 mg/30 gm, 3 times/week, from day of inoculation or 4 days later, 32 days
Description: FIG. 9A. A clone of RKO/PAR4 overexpressing cells (1×10^6) were injected subcutaneously into nude mice. PAR4 c(4-4) (100 μM; 0.25 mg/30 gm) was subcutaneously injected, at the site of the tumor either at the same day of RKO/PAR4 clone inoculation or 4 days later. The inhibitor was applied repeatedly 3 times/week for 3 weeks. Mice were weighted every 3 days and tumor size was measured. Mice were sacrificed after 32 days. […] Tumors were weighed and measured for size at the indicated time points and tumor volume was calculated05. FIG. 9C. qPCR of a representative RKO stable clone of PAR4. Error bars show s.d.; *** P<0.001. FIG. 9D. IHC of RKO/PAR4 derived tumors. Immunohistochemistry of RKO compared to small tumors in the presence of PAR4 c(4-4) inhibitor. Levels of proliferation in the large and small tumors were indicated by applying anti ki67 abs (FIG. 9Da and 9Db). For apoptosis, application of active caspase-3 Abs were applied (FIG. 9Dc and 9Dd). […] FIG. 9E. Histograms representing positive IHC in each treatment group. […] Hematoxilyn & eosin staining of large (left panel) and small (right panel) tumors distinctly indicate to the appearance of a wide basement membrane in the small tumors whereas a thinner and cell-invaded basement membrane is observed in large tumors.
We have generated stable clones overexpressing PAR4 in RKO cells, a non-aggressive colon cancer cell line (expressing wt p53), by infecting the cells with HA-hPar4 virus. This was followed by selection using Geneticin G418 resistance (500 μg/ml) to produce RKO/hPar4 clones. Clone efficiency generation was evaluated using qPCR analyses.
Male athymic nude mice aged 6-7 weeks were pre-implanted subcutaneously with the relevant cells (1×10^6 cells): either with HCT-116 or with RKO/hPar4 cells.
The inhibitor was injected at the site of the tumor at the day of inoculation. In an additional group, mice implanted with HCT-116 were administered with the inhibitor at day 4 after inoculation. The inhibitor ([…]) was applied repeatedly 3 times/week to all mice after the first administration of the inhibitor.
Mice were monitored for tumor size by external caliber measurements (length and width) on days 7, 14, 22 and for up to 32 days, if tumor burden allowed. Tumor volume (V) was calculated by V=L×W^2×0.5, where L is length and W is width. At the end of the experiment, mice were euthanized and tumors were removed, weighed and fixed in formalin for histology. All mice survived to the end of the experiment. All animal experiments were approved by the animal committee of the Hebrew University (MD-19-15924). In fact, for the xenograft tumor formation we have utilized two types of cell lines; the HCT116 cells, an aggressive colon cancer cell line, overexpressing oncogenes among of which is also PAR4, (FIGS. 10A and 10B) and clone/s overexpressing Par4, generated in RKO cell line; RKO/hPar4 cells (FIG. 9A-9C). HCT116 (1×10^6) and RKO/hPar4 (1×10^6) clone/s were inoculated subcutaneously in nude mice. The Pc(4-4) cyclic peptide was injected at the site of the tumor (100 μM; 0.25 mg/30 gram mouse), either at the time of tumor cell injection or 4 days after tumor-cell implantation. The Pc(4-4) cyclic peptide was applied repeatedly 3 times/week. The HCT116 cell inoculation generated large tumors and were terminated after 20 days, whereas the RKO/Par4 inoculation developed tumors on a slower pace and were terminated after 32 days. […] The powerful inhibition of tumor growth was seen regardless of whether the Pc(4-4) cyclic peptide was applied at the same time of tumor inoculation or applied 4 days later. This was obtained irrespective of using an aggressive colon cancer cell line or stable RKO/hPar4 clone/s, overexpressing PAR4 (FIGS. 9A and 9B).

[1] = RKO/PAR4 derived small tumors generated in the presence of the inhibitor vs large tumors

Question: Which “apoptosis in tumors (active caspase-3 IHC)” value [1] does the source give for “Pc(4-4): backbone cyclic analog of Formula I, m=n=4, ring size 30 atoms (S[GlyBU(C4)]EFRDK[GlyBU(C4)]; bridge 2-8 via CO; not fully specified; printed as SZ1EFRDKX3)” here?
Answer: The value was “induced levels of active caspase-3”.

Question: And the “proliferation in tumors (ki67 IHC)” value [1]?
Answer: The value was “little”.

Question: What about the “apoptosis in tumors (active caspase-3 IHC)” value (RKO/PAR4 derived small tumors generated in the presence of the inhibitor vs large tumors, listed as PAR4 c(4-4)) of the same substance?
Answer: Its value is “high levels of active caspase-3”.

Question: And the “difference between treatment started at the day of inoculation or 4 days after inoculation” value (RKO/Par4 stable clones in nude mice)?
Answer: The value was “no statistical difference”.

Question: And the “tumor growth / tumor size” value?
Answer: The value was “significantly smaller tumors”.

Question: What about the “tumor growth / tumor size” value (listed as PAR4 c(4-4)) of the same substance?
Answer: The value was “potently inhibits”.

Question: What about the “tumor growth / tumor size” value (listed as PAR(4-4)) of the same substance?
Answer: The value was “markedly small tumors”.
